From patent US20230339939A1 (Bayer Aktiengesellschaft, priority 2020, published 2023)
Read-outs that look alike come from different tables or passages of the source.

Key:
CSNK1A1 = CSNK1A1 (Homo sapiens (Human), UniProt P48729); assay: CSNK1A1 High ATP Assay (ADP-Glo, 1 mM ATP); type: biochemical; conditions: median, read-out: CSNK1A1 high ATP assay IC50 [mol/l] (median)
Method: CSNK1A1-inhibitory activity of compounds of the present invention in presence of 1 mM adenosine-tri-phosphate (ATP) was quantified employing the CSNK1A1-high-ATP-assay as described in the following paragraphs. In essence, the enzyme activity is measured by quantification of the adenosine-di-phosphate (ADP), which is generated as a co-product of the enzyme reaction, via the “ADP-Glo™ Kinase Assay” kit from the company Promega. This detection system works as follows: In a first step the ATP not consumed in the kinase reaction is quantitatively converted to cAMP employing an adenylate cyclase (“ADP-Glo-reagent”), then the adenylate cyclase is stopped and the ADP generated in the kinase reaction converted to ATP which generates in a luciferase-based reaction a glow-luminescence signal (“Kinase Detection Reagent”).
Recombinant fusion protein of N-terminal Glutathion-S-Transferase (GST) and full-length human CSNK1A1, expressed by baculovirus infected insect cells and purified via Glutathion affinity chromatography, was purchased from Life Technologies (product no. PV4174) and used as enzyme. As substrate for the kinase reaction the biotinylated peptide biotin-Ahx-KRRRAL-pS-VASLPGL (C-terminus in amide form) was used which can be purchased e.g. from the company Biosyntan (Berlin-Buch, Germany).
For the assay 50 nl of a 100 fold concentrated solution of the test compound in DMSO was pipetted into a white low volume 384-well microtiter plate (Greiner Bio-One, Frickenhausen, Germany), 2 μL of a solution of CSNK1A1 in aqueous assay buffer [50 mM HEPES pH 7.5, 10% (v/v) glycerol, 10 mM MgCl2, 50 mM NaCl, 1 mM dithiothreitol, 0.01% (w/v) bovine serum albumin, 0.01% (v/v) Triton X-100] were added and the mixture was incubated for 15 min at 22° C. to allow pre-binding of the test compounds to the enzyme before the start of the kinase reaction. […] The concentration of CSNK1A1 was adjusted depending of the activity of the enzyme lot and was chosen appropriate to have the assay in the linear range, a typical concentration is about 0.4 ng/μL. The reaction was stopped by the addition of 2.5 μL of “ADP-Glo-reagent” (1:1.5 fold diluted with water) and the resulting mixture was incubated at 22° C. for 1 h to convert the ATP not consumed in the kinase reaction completely […]. Subsequently 2.5 μL of the “kinase detection reagent” (1.2 fold more concentrated than recommended by the producer) were added, the resulting mixture was incubated at 22° C. for 1 h and then the luminescence measured with a suitable measurement instrument (e.g. Viewlux™ from Perkin-Elmer). The amount of emitted light was taken as a measure for the amount of ADP generated and thereby for the activity of the CSNK1A1.

[1] = target: wild-type Epidermal Growth Factor Receptor (EGFR) (Homo sapiens (Human), UniProt P00533); assay: WT-EGFR Kinase Assay (TR-FRET, 2 mM ATP); type: biochemical
Excerpt: Inhibitory activity of compounds of the present invention against wild-type Epidermal Growth Factor Receptor (EGFR) was quantified employing the TR-FRET based EGFR assay as described in the following paragraphs.
Recombinant fusion protein of N-terminal Glutathion-S-Transferase (GST) and a fragment of human EGFR (amino acids R669 to A1210), expressed in Sf9 insect cells and purified via affinity chromatography using Glutathion Sepharose as described above, was used as kinase. As substrate for the kinase reaction the biotinylated peptide biotin-Ahx-[…] (C-terminus in amide form) was used which can be purchased e.g. form the company Biosynthan GmbH (Berlin-Buch, Germany).
For the assay 50 nl of a 100 fold concentrated solution of the test compound in DMSO was pipetted into either a black low volume 384 well microtiter plate or a black 1536 well microtiter plate (both Greiner Bio-One, Frickenhausen, Germany), 2 μL of a solution of EGFR in aqueous assay buffer [50 mM Hepes pH 7.0, 10 mM MgCl2, 1 mM dithiothreitol, 0.5 mM EGTA, 0.3 mM activated sodium ortho-vanadate, 0.005% (w/v) bovine serum albumin, 0.005% (v/v) Tween-20] were added and the mixture was incubated for 15 min at 22° C. to allow pre-binding of the test compounds to the enzyme before the start of the kinase reaction. […] The concentration of EGFR was adjusted depending of the activity of the enzyme lot and was chosen appropriate to have the assay in the linear range, typical concentration was 7.6 pg/μL. The reaction was stopped by the addition of 3 μL of a solution of HTRF detection reagents (83.3 nM streptavidine-XL665 [Cisbio Bioassays, Codolet, France] and 1.67 nM PT66-Tb-Cryptate, a terbium-cryptate labelled anti-phospho-tyrosine antibody from Cisbio Bioassays [instead of the PT66-Tb-cryptate PT66-Eu-Chelate from Perkin Elmer can also be used]) in an aqueous EDTA-solution (133.3 mM EDTA, 0.2% (w/v) bovine serum albumin in 50 mM HEPES pH 7.5).
The resulting mixture was incubated 1 h at 22° C. to allow the binding of the biotinylated phosphorylated peptide to the streptavidine-XL665 and the PT66-Tb-Cryptate. Subsequently the amount of phosphorylated substrate was evaluated by measurement of the resonance energy transfer from the PT66-Tb-Cryptate to the streptavidine-XL665. Therefore, the fluorescence emissions at 620 nm and 665 nm after excitation at 337 nm were measured in a HTRF reader, e.g. a Pherastar (BMG Labtechnologies, Offenburg, Germany) or a Viewlux (Perkin-Elmer). The ratio of the emissions at 665 nm and at 622 nm was taken as the measure for the amount of phosphorylated substrate.

[2] = read-out: EGFR Wildtype 2 mM ATP IC50 [mol/l] (median)

Sequence of wild-type Epidermal Growth Factor Receptor (EGFR) (P00533 669-1210): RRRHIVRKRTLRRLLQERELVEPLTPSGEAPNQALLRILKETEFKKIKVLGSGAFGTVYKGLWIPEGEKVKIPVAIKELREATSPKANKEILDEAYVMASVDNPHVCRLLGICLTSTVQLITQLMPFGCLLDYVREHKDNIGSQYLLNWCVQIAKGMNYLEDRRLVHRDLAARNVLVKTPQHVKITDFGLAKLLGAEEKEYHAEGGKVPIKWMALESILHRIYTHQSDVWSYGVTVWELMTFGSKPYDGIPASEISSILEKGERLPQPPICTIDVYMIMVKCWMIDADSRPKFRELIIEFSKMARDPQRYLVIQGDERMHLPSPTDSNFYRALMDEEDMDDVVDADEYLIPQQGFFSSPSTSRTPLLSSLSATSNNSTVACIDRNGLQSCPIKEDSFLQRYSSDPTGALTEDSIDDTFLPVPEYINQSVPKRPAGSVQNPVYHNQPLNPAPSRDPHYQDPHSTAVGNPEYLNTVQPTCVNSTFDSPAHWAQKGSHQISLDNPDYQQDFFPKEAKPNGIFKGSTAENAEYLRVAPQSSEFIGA
Sequence of CSNK1A1 (P48729 whole entry): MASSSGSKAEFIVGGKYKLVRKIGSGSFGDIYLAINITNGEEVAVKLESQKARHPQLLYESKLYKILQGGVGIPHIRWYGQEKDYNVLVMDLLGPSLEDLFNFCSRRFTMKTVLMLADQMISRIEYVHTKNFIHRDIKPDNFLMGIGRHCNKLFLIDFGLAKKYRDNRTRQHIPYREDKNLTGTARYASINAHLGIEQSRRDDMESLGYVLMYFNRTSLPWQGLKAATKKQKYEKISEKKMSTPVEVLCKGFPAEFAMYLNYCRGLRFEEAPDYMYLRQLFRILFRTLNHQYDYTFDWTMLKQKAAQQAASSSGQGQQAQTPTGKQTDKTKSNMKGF

## CC(C(=O)Nc1cc(-c2[nH]c3cccnc3c2-c2ccccc2)ccn1)c1ccc(F)cc1 (racemic) [Example 11, 2-(4-fluorophenyl)-N-[4-(3-phenyl-1H-pyrrolo[3,2-b]pyridin-2-yl)pyridin-2-yl]propanamide]
CSNK1A1
  IC50: 321 nM
[1]; median
  IC50: > 20000 nM

## O=C(Cc1ccc(F)cc1)Nc1cc(-c2[nH]c3cccnc3c2-c2ccccc2)ccn1 [Example 14, 2-(4-fluorophenyl)-N-[4-(3-phenyl-1H-pyrrolo[3,2-b]pyridin-2-yl)pyridin-2-yl]acetamide]
CSNK1A1
  IC50: 45.5 nM
[1]; median
  IC50: > 20000 nM
[1]; [2]
  IC50: 19100 nM

## O=C(Cc1ccc(F)cc1)Nc1cc(-c2[nH]c3cccnc3c2-c2ccccn2)ccn1 [Example 5, 2-(4-fluorophenyl)-N-{4-[3-(pyridin-2-yl)-1H-pyrrolo[3,2-b]pyridin-2-yl]pyridin-2-yl}acetamide]
CSNK1A1
  IC50: 6.1 nM
[1]; [2]
  IC50: > 20000 nM

## O=C(Cc1ccc(F)cc1)Nc1cc(-c2[nH]c3ccc(F)nc3c2-c2ccccn2)ccn1 [Example 4, 2-(4-fluorophenyl)-N-{4-[5-fluoro-3-(pyridin-2-yl)-1H-pyrrolo[3,2-b]pyridin-2-yl]pyridin-2-yl}acetamide]
CSNK1A1
  IC50: 5.72 nM
[1]; [2]
  IC50: > 20000 nM

## CC(C(=O)Nc1cc(-c2[nH]c3cccnc3c2-c2ccccn2)ccn1)c1ccc(F)cc1 (racemic) [Example 6, 2-(4-fluorophenyl)-N-{4-[3-(pyridin-2-yl)-1H-pyrrolo[3,2-b]pyridin-2-yl]pyridin-2-yl}propanamide]
CSNK1A1
  IC50: 8.47 nM
[1]; median
  IC50: > 20000 nM

## O=C(Cc1ccc(F)cc1)Nc1cc(-c2[nH]c3c(Cl)ccnc3c2-c2ccccn2)ccn1 [Example 22, N-{4-[7-chloro-3-(pyridin-2-yl)-1H-pyrrolo[3,2-b]pyridin-2-yl]pyridin-2-yl}-2-(4-fluorophenyl)acetamide]
CSNK1A1
  IC50: 21.8 nM
[1]; [2]
  IC50: > 20000 nM

## CC(C(=O)Nc1cc(-c2[nH]c3ccc(F)nc3c2-c2ccccn2)ccn1)c1ccc(F)cc1 (single isomer, unassigned; (-)) [Example 2, (−)-2-(4-fluorophenyl)-N-{4-[5-fluoro-3-(pyridin-2-yl)-1H-pyrrolo[3,2-b]pyridin-2-yl]pyridin-2-yl}propanamide]
CSNK1A1
  IC50: 886 nM
[1]; median
  IC50: > 20000 nM

## COc1ccc2[nH]c(-c3ccnc(NC(=O)Cc4ccc(F)cc4)c3)c(-c3ccccn3)c2n1 [Example 32, 2-(4-fluorophenyl)-N-{4-[5-methoxy-3-(pyridin-2-yl)-1H-pyrrolo[3,2-b]pyridin-2-yl]pyridin-2-yl}acetamide]
CSNK1A1
  IC50: 23.3 nM
[1]; [2]
  IC50: > 20000 nM

## O=C(Cc1ccc(F)cc1)Nc1cc(-c2[nH]c3cc(F)cnc3c2-c2ccccc2)ccn1 [Example 10, 2-(4-fluorophenyl)-N-[4-(6-fluoro-3-phenyl-1H-pyrrolo[3,2-b]pyridin-2-yl)pyridin-2-yl]acetamide]
CSNK1A1
  IC50: 302 nM
[1]; [2]
  IC50: > 20000 nM

## CC(C(=O)Nc1cc(-c2[nH]c3cccnc3c2-c2ccccn2)ccn1)c1ccc(F)cc1 (single isomer, unassigned; (+)) [Example 7, (+)-2-(4-fluorophenyl)-N-{4-[3-(pyridin-2-yl)-1H-pyrrolo[3,2-b]pyridin-2-yl]pyridin-2-yl}propanamide]
CSNK1A1
  IC50: 4.32 nM
[1]; median
  IC50: > 20000 nM

## Cc1cc(CC(=O)Nc2cc(-c3[nH]c4cccnc4c3-c3ccccn3)ccn2)ccc1F [Example 41, 2-(4-fluoro-3-methylphenyl)-N-{4-[3-(pyridin-2-yl)-1H-pyrrolo[3,2-b]pyridin-2-yl]pyridin-2-yl}acetamide]
CSNK1A1
  IC50: 19 nM
[1]; [2]
  IC50: > 20000 nM

## CC(C)C(C(=O)Nc1cc(-c2[nH]c3ccc(F)nc3c2-c2ccccn2)ccn1)c1ccc(F)cc1 (single isomer, unassigned; (+)) [Example 26, (+)-2-(4-fluorophenyl)-N-{4-[5-fluoro-3-(pyridin-2-yl)-1H-pyrrolo[3,2-b]pyridin-2-yl]pyridin-2-yl}-3-methylbutanamide]
CSNK1A1
  IC50: 48.6 nM
[1]; [2]
  IC50: > 20000 nM

## CCc1ccnc2c(-c3ccccn3)c(-c3ccnc(NC(=O)Cc4ccc(F)cc4)c3)[nH]c12 [Example 34, N-{4-[7-ethyl-3-(pyridin-2-yl)-1H-pyrrolo[3,2-b]pyridin-2-yl]pyridin-2-yl}-2-(4-fluorophenyl)acetamide]
CSNK1A1
  IC50: 13.5 nM
[1]; [2]
  IC50: > 20000 nM

## COCC(C(=O)Nc1cc(-c2[nH]c3cc(F)cnc3c2-c2ccccn2)ccn1)c1ccc(F)cc1 (racemic) [Example 45, (2RS)-2-(4-fluorophenyl)-N-[4-[6-fluoro-3-(2-pyridyl)-1H-pyrrolo[3,2-b]pyridin-2-yl]-2-pyridyl]-3-methoxy-propanamide]
CSNK1A1
  IC50: 38.8 nM
[1]; median
  IC50: > 20000 nM

## CC(C(=O)Nc1cc(-c2[nH]c3ccc(F)nc3c2-c2ccccn2)ccn1)c1ccc(F)cc1 (racemic) [Example 1, 2-(4-fluorophenyl)-N-{4-[5-fluoro-3-(pyridin-2-yl)-1H-pyrrolo[3,2-b]pyridin-2-yl]pyridin-2-yl}propanamide]
CSNK1A1
  IC50: 16 nM
[1]; median
  IC50: > 20000 nM

## CC(C)C(C(=O)Nc1cc(-c2[nH]c3ccc(F)nc3c2-c2ccccn2)ccn1)c1ccc(F)cc1 (single isomer, unassigned; (-)) [Example 25, (−)-2-(4-fluorophenyl)-N-{4-[5-fluoro-3-(pyridin-2-yl)-1H-pyrrolo[3,2-b]pyridin-2-yl]pyridin-2-yl}-3-methylbutanamide]
CSNK1A1
  IC50: 2320 nM
[1]; median
  IC50: > 20000 nM

## O=C(Cc1ccc(F)cc1)Nc1cc(-c2[nH]c3ccnnc3c2-c2ccccn2)ccn1 [Example 21, 2-(4-fluorophenyl)-N-{4-[7-(pyridin-2-yl)-5H-pyrrolo[3,2-c]pyridazin-6-yl]pyridin-2-yl}acetamide]
CSNK1A1
  IC50: 25.1 nM
[1]; [2]
  IC50: > 20000 nM

## O=C(Cc1ccc(F)cc1)Nc1cc(-c2[nH]c3cccnc3c2-c2cccc(F)c2)ccn1 [Example 15, 2-(4-fluorophenyl)-N-{4-[3-(3-fluorophenyl)-1H-pyrrolo[3,2-b]pyridin-2-yl]pyridin-2-yl}acetamide]
CSNK1A1
  IC50: 87.7 nM
[1]; [2]
  IC50: > 20000 nM

## O=C(Cc1ccc(F)cc1)Nc1cc(-c2[nH]c3c(N4CCCC4=O)ccnc3c2-c2ccccn2)ccn1 [Example 40, 2-(4-fluorophenyl)-N-{4-[7-(2-oxopyrrolidin-1-yl)-3-(pyridin-2-yl)-1H-pyrrolo[3,2-b]pyridin-2-yl]pyridin-2-yl}acetamide]
CSNK1A1
  IC50: 30.1 nM
[1]; [2]
  IC50: > 20000 nM
